{"source": "patent US10738067B2", "about": "“Inhibitors of cyclin-dependent kinase 7 (CDK7)” (Syros Pharmaceuticals, Inc., priority 2018, dated 2020)", "key": {"HCC70 cells": {"test_system": "HCC70 cells", "test": "HCC70 cell proliferation assay (CyQUANT Direct, 72 hours)", "format": "cell-based", "conditions": "Homo sapiens, inhibition of proliferation", "method": "The HCC70 cell line was derived from human TNBC, and we tested representative compounds of the invention, at different concentrations (from 4 μM to 126.4 pM; 0.5 log serial dilutions), for their ability to inhibit the proliferation of those cells. More specifically, we tested the same compounds tested above for CDK7 selectivity (the structures of which are shown in FIG. 1), and we used the known CDK inhibitors dinaciclib (or […]) and triptolide as positive controls. The cells were grown in ATCC-formulated RPMI-1640 medium (ATCC 30-2001) supplemented with 10% fetal bovine serum (FBS), at 37° C. in a humidified chamber in the presence of 5% CO2. We conducted proliferation assays over a 72-hour time period using a CyQUANT® Direct Cell Proliferation Assay (Life Technologies, Chicago, Ill. USA) according to the manufacturer's directions and utilizing the reagents supplied with the kit."}, "[1]": {"test_system": "palbociclib and fulvestrant double-resistant ER+BC PDX model (ST941)", "test": "Tumor growth inhibition in palbociclib and fulvestrant double-resistant ER+BC PDX model ST941", "format": "in vivo, Mice", "conditions": "fulvestrant 2.5 mg/kg once weekly SC; for anti-tumor activity (in words): palbociclib 50 mpk QD PO", "method": "(§1) Tumor growth inhibition was evaluated in estrogen receptor-positive breast cancer (ER+BC) PDX models selected in vivo for resistance to the CDK4/6 inhibitor palbociclib (ST1799, n=1) or resistance to both palbociclib and fulvestrant (ST941, n=1). Dosing was initiated when tumors were 100-200 mm^3."}, "[2]": {"test_system": "palbociclib-resistant ER+BC PDX (ST1799)", "test": "Tumor growth inhibition in palbociclib-resistant ER+BC PDX model ST1799", "format": "in vivo, Mice", "conditions": "last day of 28 days dosing, Compound 101 6 mg/kg QD PO, fulvestrant 2.5 mg/kg once weekly SC, palbociclib 50 mpk QD PO", "method": "as §1"}, "[3]": {"test": "Tolerability in tumor-bearing mice (PDX studies)", "conditions": "all once-daily doses tested", "experimental": "(§2) In the TNBC model, Compound 101 was orally administered to tumor-bearing NOD/SCID mice at 10 mg/kg QD or 5 mg/kg BID for 21 days. In the SCLC and HGSOC models, Compound 101 was orally administered to tumor-bearing NOD/SCID mice at 3 mg/kg BID for 21 days. In the PDAC model, Compound 101 was orally administered to tumor-bearing NOD/SCID mice at 6 mg/kg QD. In the TNBC, SCLC, and HGSOC models, tumor volume was measured during the treatment period and for an additional 21 days after treatment ceased. […] The % regression was calculated as: (Mean TV Compound 101 @ EOT)/(Mean TV Compound 101 @Day 0)×100. The same calculations were used for end of study (day 42).\n(§3) Dosing was initiated when tumors were 150-300 mm^3. Mice were treated with either Compound 101, QD (6 or 10 mg/kg once daily, by mouth) or BID (3 or 5 mg/kg twice daily, by mouth) over the course of 21 days, followed by 21 days of observation. TGI was calculated on the last day of dosing using the formula: TGI=(Vc1−Vt1)/(Vc0−Vt0), where Vc1 and Vt1 are the mean volumes of control and treated groups at the time of tumor extraction, while Vc0 and Vt0 are the same groups at the start of dosing."}, "[4]": {"test_system": "PDX models BR5010 (TNBC), LU5178 (SCLC), OV15398 (HGSOC)", "test": "Tumor growth inhibition in TNBC, SCLC and HGSOC PDX models", "format": "in vivo, NOD/SCID mice"}, "in vivo": {"test": "in vivo", "conditions": "NOD/SCID, mouse, oral", "experimental": "as §2, §3"}, "[5]": {"test_system": "ST390 (modeling pancreatic ductal adenocarcinoma (PDAC))", "test": "Tumor growth inhibition in PDAC PDX model ST390", "format": "in vivo, NOD/SCID mice", "experimental": "as §2"}, "[6]": {"test_system": "12 PDX models representing SCLC, TNBC and HGSOC", "test": "Tumor growth inhibition in 12 PDX models (SCLC, TNBC, HGSOC)", "format": "in vivo, Mice", "experimental": "We evaluated TGI in 12 different PDX models (Crown Biosciences) in various tumor indications with PDXs representing SCLC (n=5; LU5180, LU5178, LU5192, LU5173, LU5210), TNBC (n=4; BR5010, BR1458, BR5399, BR10014) and HGSOC (n=3; OV15398, OV5392, OV15631). Dosing was initiated when tumors were 150-300 mm^3. […] TGI was calculated on the last day of dosing using the formula: TGI=(Vc1−Vt1)/(Vc0−Vt0), where Vc1 and Vt1 are the mean volumes of control and treated groups at the time of tumor extraction, while Vc0 and Vt0 are the same groups at the start of dosing."}}}
{"smiles": "C[C@H]1CC[C@H](Nc2ncc(C(F)(F)F)c(-c3c[nH]c4c(P(C)(C)=O)c(C#N)ccc34)n2)CN1", "note": "[Compound 100, 7-dimethylphosphoryl-3-[2-[[(3S, 6S)-6-methyl-3-piper-idyl]amino]-5-(trifluoromethyl)pyrimidin-4-yl]-1H-indole-6-carbonitrile]", "values": [{"measurement": "EC50", "setting": "HCC70 cells", "value": 0.98, "unit": "nM"}]}
{"smiles": "C[C@]12CC[C@@H]3c4ccc(O)cc4C[C@@H](CCCCCCCCC[S+]([O-])CCCC(F)(F)C(F)(F)F)[C@H]3[C@@H]1CC[C@@H]2O", "note": "(stereo partly drawn) [fulvestrant]", "values": [{"measurement": "anti-tumor activity (in words)", "setting": "[1]", "value": "no activity"}, {"measurement": "Tumor growth inhibition (TGI)", "setting": "[2]", "value": 60, "unit": "%"}]}
{"smiles": "CC(=O)c1c(C)c2cnc(Nc3ccc(N4CCNCC4)cn3)nc2n(C2CCCC2)c1=O", "note": "[palbociclib]", "values": [{"measurement": "anti-tumor activity (in words)", "setting": "[1]", "value": "no activity"}, {"measurement": "Tumor growth inhibition (TGI)", "setting": "[2]", "value": 21, "unit": "%"}]}
{"smiles": "CC1(C)CNC[C@@H](Nc2ncc(C(F)(F)F)c(-c3c[nH]c4c(P(C)(C)=O)c(C#N)ccc34)n2)C1", "note": "[Compound 102, (S)-7-(dimethylphosphoryl)-3-(2-((5,5-dimethylpiperidin-3-yl)amino)-5-(trifluoromethyl)pyrimidin-4-yl)-1H-indole-6-carbonitrile]", "values": [{"measurement": "EC50", "setting": "HCC70 cells", "value": 2.1, "unit": "nM"}]}
{"smiles": "CC1(C)CC[C@H](Nc2ncc(C(F)(F)F)c(-c3c[nH]c4c(P(C)(C)=O)c(C#N)ccc34)n2)CN1", "note": "[Compound 101, (S)-7-(dimethylphosphoryl)-3-(2-((6,6-dimethylpiperidin-3-yl)amino)-5-(trifluoromethyl)pyrimidin-4-yl)-1H-indole-6-carbonitrile]", "values": [{"measurement": "body weight loss (tolerability)", "setting": "[3]", "value": "no evident body weight loss"}, {"measurement": "TGI (in words)", "setting": "[4]; TNBC 10 mg/kg QD or 5 mg/kg BID, SCLC and HGSOC 3 mg/kg BID, oral, 21 days, plus 21 days observation", "value": "deep and sustained TGI, including regressions"}, {"measurement": "transcriptional responses in xenograft tissue", "setting": "[4]; observed within 4 hours of dosing, sustained for 24 hours", "value": "Dose-dependent transcriptional responses"}, {"measurement": "MTD at 21 days", "setting": "in vivo", "value": "> 10", "unit": "mg/kg"}, {"measurement": "Tumor growth inhibition (TGI)", "setting": "[1]; last day of 28 days dosing, Compound 101 6 mg/kg QD PO", "value": 33, "unit": "%"}, {"measurement": "Tumor growth inhibition (TGI)", "setting": "[2]", "value": 83, "unit": "%"}, {"measurement": "EC50", "setting": "HCC70 cells", "value": 5.6, "unit": "nM"}, {"measurement": "Tumor growth inhibition (TGI)", "setting": "[5]; 6 mg/kg QD PO, over ~28 days, sub-MTD dose", "value": 100, "unit": "%"}, {"measurement": "tumor volume", "setting": "[5]; day 21, 6 mg/kg QD, PO", "value": "about 250 mm^3"}, {"measurement": "TGI at the end of the 21-day dosing period", "setting": "[6]; all 12 PDX models, 6 or 10 mg/kg QD or 3 or 5 mg/kg BID, by mouth", "value": "at least 50%"}, {"measurement": "tumor regrowth after treatment discontinuation", "setting": "[6]; subset of models (7/12), 21 days after treatment discontinuation", "value": "no evidence of tumor regrowth"}, {"measurement": "TGI of deep responses (TGI or regression)", "setting": "[6]; subset of models (58%, 7/12)", "value": "> 95", "unit": "%"}]}
